Marks after values point to notes of the source that are not given here.
Experiments:
Format in all cases: in vivo
[1] = test system: cabbage white, Mamestra brassicae larvae; assay: Antifeedant activity on cabbage leaf discs, no-choice test; conditions: for Leaf mass eaten by the larvae vs. control, Time/0 h: 100 μg/cm^2, 0 h after treatment; for Leaf mass eaten by the larvae vs. control, Time/21 h: 100 μg/cm^2, 21 h after treatment; for Leaf mass eaten by the larvae vs. control, Time/43 h: 100 μg/cm^2, 43 h after treatment; for Leaf mass eaten by the larvae vs. control, Time/73 h: 100 μg/cm^2, 73 h after treatment; for antifeedant activity on the larvae: FIG. 2, no-choice test
Method: Antifeedant activity for the […], Mamestra brassicae larvae was tested with six compounds derived from betulin. Discs cut from cabbage leaves, having a diameter of 5 cm, were placed on petridishes and treated with the test agents in an amount of 100 μg/cm^2. One small larva was introduced on each plate. Each agent was tested in 10 parallel studies. Cabbage leaf mass remaining on the dish was weighed after 0, 21, 43 and 73 hours after treatment (hat), and leaf mass eaten by the larva was calculated as percentage based on the control.

[2] = test system: rapeseed beetles of the genus Phyllotreta spp.; assay: Antifeedant activity for rapeseed beetles on rapeseed seedlings (palatability test); conditions: for prevention of beetle feeding: 100 μg/cm^2, FIG. 1 and table 3; for % Surface area of the leaves eaten: 100 μg/cm^2 in rapeseed oil on rapeseed seedlings, after one week, rapeseed oil=100%
Method: Antifeedant activity for rapeseed beetles of the genus Phyllotreta spp. was tested using betulin 3,28-O-isostearylic diester (prepared as described in example 10), 3,28-diacetoxy betulin (prepared in example 15a), and betulin. Test compounds dissolved in 2 ml of rapeseed oil were sprayed on rapeseed seedlings at the cotyledon stage in an amount of 100 μg/cm^2. The plants thus treated were placed in an insect cage, followed by the introduction of the beetles after 24 hours. In the tests, 20 beetles were used per cage, each cage comprising 3 petridishes with seedlings, one control dish and two different test dishes, the number of the cages (=parallel tests) being 5. Pure rapeseed oil was used as the control. The beetles were allowed free access to all plants, and after one week, the test was stopped, the plants were examined, and feeding damages caused by the beetles were evaluated.
Number of the damaged leaves and the degree of damage were evaluated (% leaf surface area fed, palatability assessment).
Betulin 20,29-epoxy-3β,28-diacetate was used as the control compound, prepared as disclosed in J. Arg. Food Chem. 1995, 43, 2513-2516.

[3] = test system: lily beetles (Lilioceris lilii) adults; assay: Palatability and egg laying selection test with adults on brown lily leaves; conditions: for Percentage of the eaten relative mass of the leaf: selection test, approx. 100 μg/cm^2, four days, ethanol control 76.4
Method: (§1) Antifeedant activity of betulin and betulonic acid was tested for lily beetles (Lilioceris lilii) with adults and larvae using leaves of brownlily plants. The test substances were dissolved in ethanol, and the leaves were treated to achieve a concentration of approx. 100 μg/cm^2 of the test substance. The experiment was carried out with adults as a selection test on a petridisc containing two leaves cut from a brown lily plant. One was treated with the test substance and the other treated with ethanol only. Two adult lilybeetles (Lilioceris lilii) were placed on the disc (male and female). The leaf mass eaten by the animals was counted daily during four days by weighing the leaves; simultaneously the number eggs laid by the adults were counted. 10 parallel tests were performed. The test with larvae was a no-choise-test, where either a treated or untreated leaf of brownlily and one beetle larvae was placed on each disc. 7 parallel tests were performed. Results from the palatability test and the prevention of egglaying test with adults and larvae of lily beetles (Lilioceris lilii) are shown in the following table 7. […] Betulonic acid decreased very efficiently egglaying of adults on the leaves (more than 90%). Betulonic acid decreased feeding of larvae efficiently (92%), with betulin this was not observed. In a no-choise situation the larvae died on the betulonic acid treated leaves, in other test treatments they grew normally.

[4] = test system: strawberry beetles (Galerucella tenella); assay: Palatability and egg laying selection test on strawberry leaves
Method: Antifeedant activity of betulin and betulonic acid was tested for strawberry beetles (Galerucella tenella) with adults and larvae using leaves of the plants. The test substances were dissolved in ethanol, and the leaves were treated to achieve a concentration of approx. 100 μg/cm^2 of the test substance. The experiment was carried out as a selection test on a petridisc containing a strawberry leaf having one half treated with the test substance and the other half treated with ethanol only. Two adult strawberry beetles (Galerucella tenella) were placed on the disc (male and female) or two larvae. The number of cavities eaten by the animals were counted daily during four days; simultaneously the number eggs laid by the adults were counted. Both the adults and the larvae had 10 tests. Results from the palatability test and the prevention of egg laying test with strawberry beetles (Galerucella tenella) are shown in the following table 6.

[5] = test system: Deroceras agreste (field snails) and Deroceras reticulatum (false field snails); assay: Effect on feeding behaviour of snails, half-treated leaf discs; conditions: for Percentage of the leaf half treated with the test substance vs. total mass eaten: treated half of leaf disc; for Percentage of the leaf half treated with the test substance vs. total mass eaten / Percentage of the control vs. total mass eaten: 36 hours, 100 μg/cm^2 in acetone; for Percentage of the control vs. total mass eaten: untreated half of leaf disc; for ranking of snail test results: 100 μg/cm^2
Method: Deroceras agreste (field snails) and Deroceras reticulatum (false field snails) snails with lengts of about 2 cm, collected from nature, were used in this antifeedant test. Cabbage and lettuce leaves cut into discs with diameters of 4 cm serving as feed plants were placed on petridishes. Half on each leaf disc was treated with the test substance, the other haft serving as the control. One snail was placed on each plate, and only tests where the snail ate the leaf were assayed. The results were recorded at 36 hours after test initiation. Acetone was used as control, while betulin, betulinic acid, betulonic acid and betulin 28-carboxymethoxy mentholester dissolved in aceton served as test substances. The leaves studied were treated with test substances used in amounts of 100 μg/cm^2, The results from this test are presented in the following table 5.

[6] = test system: lily beetles (Lilioceris lilii) larvae; assay: No-choice feeding test with larvae on brown lily leaves; conditions: for decrease of feeding of larvae / Percentage of the eaten relative mass of the leaf: larvae; for Percentage of the eaten relative mass of the leaf: no-choice test, approx. 100 μg/cm^2, ethanol control 65.3
Method: as §1

[7] = test system: cabbage white, Mamestra brassicae larvae; assay: Antifeedant activity on cabbage leaf discs, no-choice test; conditions: FIG. 3, small larvae (12 to 19 mg), weight after 7 hours vs initial weight
[8] = larvae, approx. 100 μg/cm^2, four days, ethanol = 100
[9] = adults, approx. 100 μg/cm^2, four days, ethanol = 100

Molecule	Leaf mass eaten by the larvae vs. control, Time/0 h [1] [%]	Leaf mass eaten by the larvae vs. control, Time/21 h [1]	Leaf mass eaten by the larvae vs. control, Time/43 h [1]	Leaf mass eaten by the larvae vs. control, Time/73 h [1] [%]	% Surface area of the leaves eaten [2] [%]	Percentage of the leaf half treated with the test substance vs. total mass eaten [5] [%]	Percentage of the control vs. total mass eaten [5] [%]	ranking of snail test results [5]	also measured
3,28-C18 alkylene succinic diester of betulin	100	93%	90%	77					
3,28-O-isostearylic acid diester of betulin [Betulin 3,28-O-isostearylic acid diester]					64				prevention of beetle feeding [2]: efficiently prevented beetle feeding
28-C18 alkylene succinic ester of betulin	100	103* %	82%	71					antifeedant activity on the larvae [1]: clearly had antifeedant activities
C=C(C)[C@@H]1CC[C@]2(COC(C)=O)CC[C@]3(C)C(CCC4[C@@]5(C)CC[C@H](OC(C)=O)C(C)(C)C5CC[C@]43C)C12 (stereo partly drawn) [3,28-diacetoxy betulin]					96				
CC(=O)OCC12CCC(C3(C)CO3)C1C1CCC3C4(C)CCC(OC(C)=O)C(C)(C)C4CCC3(C)C1(C)CC2 (stereo not drawn) [Betulin 20,29-epoxy-3β,28-diacetate, reference compound]					50				
C=C(C)[C@@H]1CC[C@]2(CO)CC[C@]3(C)[C@H](CC[C@@H]4[C@@]5(C)CC[C@H](O)C(C)(C)[C@@H]5CC[C@]43C)[C@@H]12 [Betulin, lup-20(29)-ene-3β,28-diol]	100	101* %	193* %	88	58	22.5	77.5		prevention (decrease) of feeding [3]: approx. 47%; Percentage of the eaten relative mass of the leaf [3]: 40.7%; prevention of feeding ([4]; larvae): 78%; Percentage of the relative number of eaten cavities [4, 8]: 21.9%; prevention of beetle feeding [2]: efficiently prevented beetle feeding; decrease of feeding of larvae [6]: not observed; Percentage of the eaten relative mass of the leaf [6]: 64.2%
C=C(C)[C@@H]1CC[C@]2(C(=O)O)CC[C@]3(C)C(CCC4[C@@]5(C)CC[C@H](O)C(C)(C)C5CC[C@]43C)C12 (stereo partly drawn) [Betulinic acid, betulinic acid]	100	46%	67%	80		37.6	62.4	Best results	weight development of the larvae [7]: lower than the initial weight; antifeedant activity on the larvae [1]: clearly had antifeedant activities
C=C(C)[C@@H]1CC[C@]2(C(=O)O)CC[C@]3(C)C(CCC4[C@@]5(C)CCC(=O)C(C)(C)C5CC[C@]43C)C12 (stereo partly drawn) [Betulonic acid, betulonic acid]	100	94%	95%	86		25.8	74.2	Best results	decrease of egglaying of adults on the leaves [3]: more than 90%; prevention (decrease) of feeding [3]: approx. 78%; Percentage of the number or eggs laid by the beetles ([3]; approx. 100 μg/cm^2, ethanol control = 100): 8.7%; Percentage of the eaten relative mass of the leaf [3]: 17.0%; prevention of feeding ([4]; adults): approx. 41%; prevention of laying of eggs on the leaves ([4]; adults): more than 90%; Percentage of the number or eggs laid by the females on the leaves [4, 9]: 8.3%; Percentage of the relative number of eaten cavities [4, 9]: 58.7%; prevention of feeding ([4]; larvae): 82%; Percentage of the relative number of eaten cavities [4, 8]: 17.8%; decrease of feeding of larvae [6]: 92%; Percentage of the eaten relative mass of the leaf [6]: 5.2%; fate of larvae on treated leaves ([6]; no-choice situation): died
C=C(C)[C@@H]1CC[C@]2(COC(=O)CO[C@H]3C[C@@H](C)CC[C@@H]3C(C)C)CC[C@]3(C)C(CCC4[C@@]5(C)CC[C@H](O)C(C)(C)C5CC[C@]43C)C12 (stereo partly drawn) [betulin 28-carboxymethoxy menthol ester, 28-carboxymethoxy mentholester of betulin]	100	126* %	146* %	94		36.6	63.4	Best results	

Source: US20120035224A1, “Betulin derived compounds as anti-feedants for plant pests” (priority 2006, published 2012)
